26 molecules from PubChem BioAssay (NCI) can be followed below.

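Cultured in 96-well plates, cells were exposed to test compound for 48 hours across five concentrations. GI50 = concentration required for 50% inhibition of growth. TGI: total growth inhibition.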

One assay relates to NCI/ADR-RES ovarian. The assay is described as follows: NCI-60 cell line screen, 48 h.
In the case of `COc1cc2c3c(n(C)c(=O)c2cc1OC)-c1cc2c(cc1/C3=C\CCN)OCO2`, the GI50 was 0.272 µM and the TGI came to 2.56 µM.

For another assay, the system named is SR leukemia. The experiment in a line: NCI-60 cell line screen, 48 h.
With `COc1ccc(S(=O)(=O)NNS(C)(=O)=O)cc1`, the TGI was over 100 µM.
Turning to `O=C(/C=C\c1ccc(Cl)c(Cl)c1)c1ccc(Cl)cc1Cl`, the GI50 was 7.87 µM.
The molecule `Cn1c2ccccc2c2cc(-c3ccccc3)c3c(c21)C(=O)c1ccccc1C3=O` yielded a TGI of 31.4 µM.
Consider `CN(C)c1ccc(/C=C(\NC(=O)c2ccccc2)c2nc3ncncc3[nH]2)cc1`, for which the TGI is over 100 µM.
Same read-out and setting: the same measure for `CCOC(=O)CC(=O)ON(C)C(C)=O`: over 100 µM.
Same read-out and setting: the same measure for `O=S1(=O)OCCOS(=O)(=O)C1Br`: over 100 µM; for `CC(=O)/C(=C\c1cccc([N+](=O)[O-])c1)C(=O)Nc1ccccc1C`: over 100 µM.

The subject of a further assay is SNB-75 CNS. The experiment in a line: NCI-60 cell line screen, 48 h.
For `CCOC(=O)NC(=O)c1cn(CCCO)c(=O)[nH]c1=O`, the TGI was over 100 µM.
On the same count and under the same terms, the same measure for `CCN1c2ccccc2C(C(SC)S(=O)(=O)c2ccc(C)cc2)c2c1[nH]c(=O)n(C)c2=O` (stereo not given): 69.7 µM; for `COc1ccc(S(=O)(=O)NNS(C)(=O)=O)cc1`: over 100 µM.
Regarding `C[C@@H]1CCC2[C@@H](C)[C@@H](OCC(CO[C@H]3OC4O[C@@]5(C)CC[C@H]6[C@H](C)CCC([C@H]3C)[C@@]46OO5)OC(=O)CCC(=O)O)OC3O[C@@]4(C)CC[C@@H]1[C@]32OO4` (stereo not given in full), the GI50 is 16.1 µM and the TGI was 36.6 µM.
For the molecule `CC1(C)C2CCC(=O)C1CC2` (stereo not given), the TGI was over 100 µM.
Still for that read-out and setting: the same measure for `O=C(/C=C\c1ccc(Cl)c(Cl)c1)c1ccc(Cl)cc1Cl`: 46.8 µM.
Turning to `ClCc1cccc(Cn2cnc3ncnc(Cl)c32)c1`, the GI50 is 1.84 µM and the TGI came to 3.53 µM.
Molecule `CCOC(=O)C(=C=C=C(c1ccccc1)c1ccccc1)C(=O)OCC` returned a TGI of 21.9 µM.
Regarding `OCC#Cc1ccccc1C#Cc1ccccc1`, the GI50 was 14.6 µM and the TGI stood at 30.4 µM.
The molecule `Cn1c2ccccc2c2cc(-c3ccccc3)c3c(c21)C(=O)c1ccccc1C3=O` came in with a TGI of over 100 µM.
On the same count and under the same terms, the result for `c1ccc(COc2cccc3ccc[n+](Cc4ccccc4)c23)cc1` reads 19.4 µM; that for `CC1=CC(O)(c2ccc(-c3ccccc3Cl)cc2)OC1=O` (stereo not given), over 100 µM.
As for `O=C(/C=C/c1ccncc1)c1cc(Cl)ccc1O`, the GI50 is 17.5 µM and the TGI is 32.2 µM.
On to `COc1cc2c3c(n(C)c(=O)c2cc1OC)-c1cc2c(cc1/C3=C\CCCN)OCO2`, for which the GI50 is 11.2 µM and the TGI turned out to be 31.6 µM.
Turning to `Cc1ccc(S(=O)(=O)Nc2ccccc2C(=O)c2ccc(C)c(C)c2)cc1`, the TGI was over 100 µM.
`COC(OC)C(C)CC(=O)N(C)C` (stereo not given) gave a TGI of over 100 µM.
On the same count and under the same terms, the result for `O=S1(=O)OCCOS(=O)(=O)C1Br` reads over 100 µM; that for `CC(C)=Cc1cc(C(=O)Nc2ccc(Cl)c(Cl)c2)nc(N)n1`, over 100 µM; that for `CCOC(=O)c1cc2nc3ccccc3c(=O)n2c2ccccc12`, over 10 µM.
As for `C[Si](C)(C)C1(Sc2ccccc2)SCCCS1`, the TGI was over 100 µM.
As to `O=C(CSc1ccc(Cl)cc1)Nc1ccc(-c2nc3ccccc3s2)c(Cl)c1`, the GI50 was 29.1 µM and the TGI is over 100 µM.
For `COc1cc2c3c(n(C)c(=O)c2cc1OC)-c1cc2c(cc1/C3=C\CCN)OCO2`, the GI50 is 6.05 µM and the TGI is over 59.9 µM.

For the next assay, the system named is U251 CNS. The experiment in a line: NCI-60 cell line screen, 48 h.
`CCOC(=O)NC(=O)c1cn(CCCO)c(=O)[nH]c1=O`: the TGI is over 100 µM.
Still for that read-out and setting: the result for `CCN1c2ccccc2C(C(SC)S(=O)(=O)c2ccc(C)cc2)c2c1[nH]c(=O)n(C)c2=O` (stereo not given) reads over 100 µM; that for `COc1ccc(S(=O)(=O)NNS(C)(=O)=O)cc1`, over 100 µM.
On to `C[C@@H]1CCC2[C@@H](C)[C@@H](OCC(CO[C@H]3OC4O[C@@]5(C)CC[C@H]6[C@H](C)CCC([C@H]3C)[C@@]46OO5)OC(=O)CCC(=O)O)OC3O[C@@]4(C)CC[C@@H]1[C@]32OO4` (stereo not given in full), for which the GI50 was under 0.01 µM and the TGI is 24.5 µM.
The like results for `O=C1c2cc3c(cc2-c2c1c1ccc(F)cc1c(=O)n2CCCNCCO)OCO3` were, in that order, 0.0225 µM and 0.102 µM.
Regarding `CC1(C)C2CCC(=O)C1CC2` (stereo not given), the TGI was over 100 µM.
The same measure, in the same setting: the same measure for `O=C(/C=C\c1ccc(Cl)c(Cl)c1)c1ccc(Cl)cc1Cl`: 40.6 µM.
In the case of `ClCc1cccc(Cn2cnc3ncnc(Cl)c32)c1`, the GI50 is 1.97 µM and the TGI worked out at 3.95 µM.
In the case of `CCOC(=O)C(=C=C=C(c1ccccc1)c1ccccc1)C(=O)OCC`, the TGI came out at 33.2 µM.
Consider `OCC#Cc1ccccc1C#Cc1ccccc1`, for which the GI50 was 11.7 µM and the TGI is 25.2 µM.
`c1ccc(COc2cccc3ccc[n+](Cc4ccccc4)c23)cc1`: the TGI was over 100 µM.
With `CN(C)c1ccc(/C=C(\NC(=O)c2ccccc2)c2nc3ncncc3[nH]2)cc1`, the TGI was over 100 µM.
On the same count and under the same terms, the result for `CC1=CC(O)(c2ccc(-c3ccccc3Cl)cc2)OC1=O` (stereo not given) reads over 100 µM.
Turning to `O=C(/C=C/c1ccncc1)c1cc(Cl)ccc1O`, the GI50 is 12.7 µM and the TGI stood at 26.2 µM.
The like results for `COc1cc2c3c(n(C)c(=O)c2cc1OC)-c1cc2c(cc1/C3=C\CCCN)OCO2` were, in that order, 1.66 µM and 10.6 µM.
For the molecule `CCOC(=O)CC(=O)ON(C)C(C)=O`, the TGI was over 100 µM.
Same read-out and setting: the same measure for `Cc1ccc(S(=O)(=O)Nc2ccccc2C(=O)c2ccc(C)c(C)c2)cc1`: over 100 µM; for `COC(OC)C(C)CC(=O)N(C)C` (stereo not given): over 100 µM.
The same measure, in the same setting: the same measure for `CC(C)=Cc1cc(C(=O)Nc2ccc(Cl)c(Cl)c2)nc(N)n1`: over 100 µM.
On the same count and under the same terms, the same measure for `CCOC(=O)c1cc2nc3ccccc3c(=O)n2c2ccccc12`: over 10 µM; for `CC(=O)/C(=C\c1cccc([N+](=O)[O-])c1)C(=O)Nc1ccccc1C`: over 100 µM.
For the molecule `C[Si](C)(C)C1(Sc2ccccc2)SCCCS1`, the TGI was over 100 µM.
As for `O=C(CSc1ccc(Cl)cc1)Nc1ccc(-c2nc3ccccc3s2)c(Cl)c1`, the GI50 was 3.71 µM and the TGI was 18.7 µM.
The like results for `COc1cc2c3c(n(C)c(=O)c2cc1OC)-c1cc2c(cc1/C3=C\CCN)OCO2` were, in that order, 0.16 µM and 22.8 µM.
